Experimental data published in ChEMBL document CHEMBL1201862, “PubChem BioAssay data set” (2004).
The source made the active and inactive calls.

Columns and labels:
[1] = biological target: Lysosomal acid glucosylceramidase (Homo sapiens, UniProt P04062); assay: Dose response cell-based high throughput screening assay to identify enhancers of beta-glucosidase activity. [Related pubchem assays: 784 ]; type: functional
Cytochrome P450 2C19 = Cytochrome P450 2C19 (Homo sapiens, UniProt P33261); assay: Cytochrome panel assay with activity outcomes. Panel member name: p450-cyp2c19 Compounds with AC50 equal or less than 10 uM are considered active; type: functional
Sequence of Cytochrome P450 2C19 (P33261 whole entry): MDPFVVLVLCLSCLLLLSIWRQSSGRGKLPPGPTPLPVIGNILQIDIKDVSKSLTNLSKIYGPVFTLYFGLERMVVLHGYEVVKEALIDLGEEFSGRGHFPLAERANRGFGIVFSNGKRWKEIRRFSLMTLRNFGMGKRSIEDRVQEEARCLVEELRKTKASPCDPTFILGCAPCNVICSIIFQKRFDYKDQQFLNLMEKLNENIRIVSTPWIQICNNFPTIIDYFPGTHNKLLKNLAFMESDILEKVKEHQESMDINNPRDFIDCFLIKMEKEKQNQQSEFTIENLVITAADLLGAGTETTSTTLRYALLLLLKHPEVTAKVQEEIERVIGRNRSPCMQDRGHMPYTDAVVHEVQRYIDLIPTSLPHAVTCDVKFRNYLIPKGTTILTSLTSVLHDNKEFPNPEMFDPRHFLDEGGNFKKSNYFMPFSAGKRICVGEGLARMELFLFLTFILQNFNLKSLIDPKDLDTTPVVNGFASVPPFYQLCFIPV

Cytochrome P450 2D6 = Cytochrome P450 2D6 (Homo sapiens, UniProt P10635);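 also: CYP2D6 member of a cytochrome P450 panel assay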
Sequence of Cytochrome P450 2D6 (P10635 whole entry): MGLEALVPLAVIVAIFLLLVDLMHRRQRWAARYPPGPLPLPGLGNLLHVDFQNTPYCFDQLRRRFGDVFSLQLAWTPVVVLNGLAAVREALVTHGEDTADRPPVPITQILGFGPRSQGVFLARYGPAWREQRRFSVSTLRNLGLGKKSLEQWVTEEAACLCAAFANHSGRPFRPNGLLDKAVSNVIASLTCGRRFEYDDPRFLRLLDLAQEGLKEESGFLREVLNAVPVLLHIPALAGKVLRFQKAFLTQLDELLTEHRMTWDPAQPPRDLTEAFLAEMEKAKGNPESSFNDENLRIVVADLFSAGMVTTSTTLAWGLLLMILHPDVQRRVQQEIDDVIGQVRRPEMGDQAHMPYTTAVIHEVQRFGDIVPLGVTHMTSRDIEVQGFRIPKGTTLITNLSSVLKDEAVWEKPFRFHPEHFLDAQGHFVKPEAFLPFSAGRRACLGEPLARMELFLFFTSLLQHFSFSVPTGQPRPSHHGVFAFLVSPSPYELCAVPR

Cytochrome P450 2C9 = Cytochrome P450 2C9 (Homo sapiens, UniProt P11712)
Sequence of Cytochrome P450 2C9 (P11712 whole entry): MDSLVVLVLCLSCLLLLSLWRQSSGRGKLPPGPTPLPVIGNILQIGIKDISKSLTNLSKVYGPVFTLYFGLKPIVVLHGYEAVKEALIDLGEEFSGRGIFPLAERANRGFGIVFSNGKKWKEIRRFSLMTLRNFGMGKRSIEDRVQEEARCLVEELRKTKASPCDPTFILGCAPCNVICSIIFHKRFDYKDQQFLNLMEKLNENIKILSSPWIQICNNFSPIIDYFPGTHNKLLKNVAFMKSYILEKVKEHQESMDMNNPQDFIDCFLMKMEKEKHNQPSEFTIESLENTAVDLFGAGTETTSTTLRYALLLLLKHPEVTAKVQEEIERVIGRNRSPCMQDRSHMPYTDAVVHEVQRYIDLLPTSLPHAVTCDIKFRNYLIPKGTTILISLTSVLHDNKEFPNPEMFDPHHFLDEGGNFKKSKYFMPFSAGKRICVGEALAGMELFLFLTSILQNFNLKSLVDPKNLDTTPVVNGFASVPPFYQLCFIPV

[2] = biological target: Peroxisome proliferator-activated receptor gamma/Nuclear receptor coactivator 1 (Homo sapiens, UniProt P37231); assay: (§1) TR-FRET dose response biochemical High Throughput Screening assay for agonists of the steroid receptor coactivator 1 (SRC-1) recruitment by the peroxisome proliferator-activated receptor gamma (PPAR gamma): non-selective agonists. [Related pubchem assays (depositor defined):AID1300, AID1808, AID504735, AID631]; type: protein assay
Bcl-2-like protein 10 = Bcl-2-like protein 10 (Homo sapiens, UniProt Q9HD36); assay: displacers of TR3 peptide from Bcl-B, primary screen, selectivity assay for Bfl-1 inhibitor project, biochemical, fluorescence polarization, FITC-TR3 peptide (AID 748);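 also: fluorescence polarization from a fluorescein-labelled TR3 peptide binding purified Bcl-B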
Sequence of Bcl-2-like protein 10 (Q9HD36 whole entry): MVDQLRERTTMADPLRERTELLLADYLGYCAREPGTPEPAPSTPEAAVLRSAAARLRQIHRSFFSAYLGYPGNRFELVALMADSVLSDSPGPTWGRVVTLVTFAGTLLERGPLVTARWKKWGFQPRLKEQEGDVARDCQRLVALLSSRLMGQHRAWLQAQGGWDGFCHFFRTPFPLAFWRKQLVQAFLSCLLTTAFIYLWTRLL

[3] = biological target: Peroxisome proliferator-activated receptor gamma/Nuclear receptor coactivator 3 (Homo sapiens, UniProt P37231); assay: as §1, with “3 (SRC-3)” for “1 (SRC-1)”, “assays: 1301 (Confirmation screen.), 1048 (Primary screen.)]” for “assays (depositor defined):AID1300, AID1808, AID504735, AID631]”; type: functional
Estrogen receptor beta = Estrogen receptor beta (Homo sapiens, UniProt Q92731);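 also: recombinant ER-beta bound to coactivator SRC1 peptide in presence of estradiol agonist; inhibitors block coactivator peptide binding and lower the FRET signal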
Sequence of Estrogen receptor beta (Q92731 whole entry): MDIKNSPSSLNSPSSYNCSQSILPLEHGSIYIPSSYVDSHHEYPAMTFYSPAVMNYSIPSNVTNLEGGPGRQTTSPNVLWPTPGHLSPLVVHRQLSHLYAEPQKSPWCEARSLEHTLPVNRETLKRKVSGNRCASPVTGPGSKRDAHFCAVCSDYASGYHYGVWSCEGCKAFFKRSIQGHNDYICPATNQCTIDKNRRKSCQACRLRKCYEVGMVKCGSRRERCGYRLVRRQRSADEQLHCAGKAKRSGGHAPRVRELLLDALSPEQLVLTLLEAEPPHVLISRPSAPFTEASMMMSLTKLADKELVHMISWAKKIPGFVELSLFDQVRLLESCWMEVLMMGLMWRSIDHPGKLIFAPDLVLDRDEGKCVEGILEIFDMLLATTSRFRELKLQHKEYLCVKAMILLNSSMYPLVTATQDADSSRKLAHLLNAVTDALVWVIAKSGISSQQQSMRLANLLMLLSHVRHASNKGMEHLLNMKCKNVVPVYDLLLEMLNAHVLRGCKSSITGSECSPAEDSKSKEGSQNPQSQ

[4] = biological target: Peroxisome proliferator-activated receptor gamma/Nuclear receptor coactivator 2 (Homo sapiens, UniProt P37231); assay: TR-FRET dose response biochemical High Throughput Screening assay for agonists of the steroid receptor coactivator 2 (SRC-2) recruitment by the peroxisome proliferator-activated receptor gamma (PPAR gamma): non-selective agonists. [Related pubchem assays: 1297, 1032 ]; type: functional
[5] = biological target: Mitogen-activated protein kinase 10 (Homo sapiens, UniProt P53779); assay: Dose response biochemical screening assay for inhibitors of c-Jun N-Terminal Kinase 3 (JNK3). [Related pubchem assays: 746 ]
Sequence of Mitogen-activated protein kinase 10 (P53779 whole entry): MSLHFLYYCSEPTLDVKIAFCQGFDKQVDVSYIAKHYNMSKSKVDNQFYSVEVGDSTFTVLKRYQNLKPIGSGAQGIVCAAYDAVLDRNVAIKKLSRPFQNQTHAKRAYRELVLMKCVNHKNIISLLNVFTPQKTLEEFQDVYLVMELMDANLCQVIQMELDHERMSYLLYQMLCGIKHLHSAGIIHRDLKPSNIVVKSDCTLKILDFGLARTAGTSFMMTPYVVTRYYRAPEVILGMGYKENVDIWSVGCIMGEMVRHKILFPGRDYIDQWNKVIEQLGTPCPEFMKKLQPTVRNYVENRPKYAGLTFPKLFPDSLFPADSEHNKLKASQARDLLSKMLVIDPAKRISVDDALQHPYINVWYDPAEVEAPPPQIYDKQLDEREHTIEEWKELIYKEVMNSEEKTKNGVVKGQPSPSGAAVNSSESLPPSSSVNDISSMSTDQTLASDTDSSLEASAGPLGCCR

[6] = inhibitors of firefly luciferase expression or activity, dose response, H4 neuroglioma cells, luminescence (AID 1990); type: functional, cell-based
[7] = luciferase reporter signal reduction – luminescence, H4-C neuroglioblastoma cells, dose response (AID 2458); type: functional, cell-based;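 also: H4 neuroglioblastoma cells stably carrying a luciferase reporter gene fusion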
BJ [8] = assay: cytotoxicity toward BJ-TERT fibroblasts, dose response, cell-based, RAS-independent, luminescence (AID 1933); type: functional; conditions: Homo sapiens
cells = type: functional, cell-based
[9] = Luminescence Cell-Based Dose Response HTS to Identify Inhibitors of 5'UTR Stem-Loop Driven Prion Protein mRNA Translation in H4 Neuroglioblastoma Cells. [Related pubchem assays: 1827 (Project Summary), 1813 (Primary HTS)]; type: functional
[10] = inhibitors of SNCA 5'UTR-driven reporter translation, confirmation, H4 neuroglioma cells, luminescence (AID 1988); type: functional, cell-based
BJ [11] = assay: cells; type: functional, cell-based; conditions: Homo sapiens
[12] = Luminescence-based dose response cell-based high throughput screening assay for cytotoxic compounds using the IEC-6 intestinal epithelial cell line. [Related pubchem assays: 1858 (Summary AID.), 1825 (Counterscreen.), 1907 (Confirmation screen.)]; type: functional
BJ [13] = assay: cytotoxicity toward BJ-TERT-LT-ST fibroblasts, dose response, cell-based, RAS-independent, luminescence (AID 1935); type: functional; conditions: Homo sapiens;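 also: BJ fibroblasts immortalized with TERT plus LT and ST oncogenes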
[14] = cytotoxicity toward DRD oncogenic fibroblasts, dose response, cell-based, non-viral oncogenic, luminescence (AID 1934); type: functional; conditions: Homo sapiens
[15] = inhibitors of SNCA 5'UTR-driven translation, confirmation, luminescence, H4 neuroglioblastoma cells, dose confirmation (AID 2454); type: functional, cell-based;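 also: H4 neuroglioblastoma cells carrying an alpha-synuclein 5'UTR luciferase reporter; potency for inhibition of the luciferase signal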
[16] = biological target: Metabotropic glutamate receptor 4 (Rattus norvegicus, UniProt P31423); assay: Modulation of the Metabotropic Glutamate Receptor mGluR4: Rat PAM Potency. [Related pubchem assays (depositor defined):AID2437, AID2807]; type: functional
Sequence of Metabotropic glutamate receptor 4 (P31423 whole entry): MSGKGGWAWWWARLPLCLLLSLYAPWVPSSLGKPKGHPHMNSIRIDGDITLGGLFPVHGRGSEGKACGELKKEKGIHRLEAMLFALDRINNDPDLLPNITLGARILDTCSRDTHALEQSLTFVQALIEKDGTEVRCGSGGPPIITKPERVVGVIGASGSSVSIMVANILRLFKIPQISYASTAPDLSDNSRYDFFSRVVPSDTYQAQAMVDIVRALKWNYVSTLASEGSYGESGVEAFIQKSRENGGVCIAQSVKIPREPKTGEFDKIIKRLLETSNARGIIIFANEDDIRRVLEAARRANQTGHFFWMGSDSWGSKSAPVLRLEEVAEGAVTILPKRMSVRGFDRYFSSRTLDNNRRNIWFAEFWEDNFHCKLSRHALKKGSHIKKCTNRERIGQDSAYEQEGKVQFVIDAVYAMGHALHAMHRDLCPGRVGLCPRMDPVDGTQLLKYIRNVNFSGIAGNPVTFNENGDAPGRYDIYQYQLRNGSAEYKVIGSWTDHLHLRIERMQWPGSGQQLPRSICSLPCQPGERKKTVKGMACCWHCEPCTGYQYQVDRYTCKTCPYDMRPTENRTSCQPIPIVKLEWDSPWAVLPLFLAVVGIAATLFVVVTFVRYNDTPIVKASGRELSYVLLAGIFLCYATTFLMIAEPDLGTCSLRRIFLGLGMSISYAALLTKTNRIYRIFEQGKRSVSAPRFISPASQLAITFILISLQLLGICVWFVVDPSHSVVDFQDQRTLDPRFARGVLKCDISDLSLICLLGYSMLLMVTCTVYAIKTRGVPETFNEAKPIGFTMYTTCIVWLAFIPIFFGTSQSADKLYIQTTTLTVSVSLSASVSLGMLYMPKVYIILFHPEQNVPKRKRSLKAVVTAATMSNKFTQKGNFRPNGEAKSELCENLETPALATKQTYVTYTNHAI

[17] = biological target: G-protein coupled receptor 35 (Homo sapiens, UniProt Q9HC97); assay: GPR35 antagonists blocking zaprinast-driven arrestin recruitment, primary screen, imaging, U2OS, beta-arrestin-GFP, zaprinast agonist (AID 2058); type: functional;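 also: antagonist potency meaning inhibition of agonist-induced arrestin redistribution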
Sequence of G-protein coupled receptor 35 (Q9HC97 whole entry): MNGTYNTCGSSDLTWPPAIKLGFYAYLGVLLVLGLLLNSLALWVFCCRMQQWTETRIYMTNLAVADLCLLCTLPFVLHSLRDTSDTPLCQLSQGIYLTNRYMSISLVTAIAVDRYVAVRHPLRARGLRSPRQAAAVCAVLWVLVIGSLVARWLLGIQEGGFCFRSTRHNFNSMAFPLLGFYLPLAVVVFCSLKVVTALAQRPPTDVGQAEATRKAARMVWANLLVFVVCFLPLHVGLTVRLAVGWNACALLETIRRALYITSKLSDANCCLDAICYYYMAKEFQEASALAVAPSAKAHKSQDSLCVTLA

Beta-lactamase [18] = biological target: Beta-lactamase (Pseudomonas aeruginosa, UniProt Q79MP6);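 also: biochemical dose-response test of metallo-beta-lactamase enzyme inhibition, read out by epi-absorbance; purified recombinant IMP-1 metallo-beta-lactamase with nitrocefin as substrate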
Sequence of Beta-lactamase (Pseudomonas aeruginosa, UniProt Q79MP6) (Q79MP6 whole entry): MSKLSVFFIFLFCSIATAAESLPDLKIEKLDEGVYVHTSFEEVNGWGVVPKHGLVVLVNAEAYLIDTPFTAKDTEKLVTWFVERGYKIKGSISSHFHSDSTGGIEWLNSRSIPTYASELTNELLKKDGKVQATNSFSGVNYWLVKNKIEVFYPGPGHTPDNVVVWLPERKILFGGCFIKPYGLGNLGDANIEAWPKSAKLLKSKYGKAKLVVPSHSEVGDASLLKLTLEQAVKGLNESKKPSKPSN

Beta-lactamase [19] = biological target: Beta-lactamase (Salmonella choleraesuis (strain SC-B67), UniProt Q5J463)
Sequence of Beta-lactamase (Salmonella choleraesuis (strain SC-B67), UniProt Q5J463) (Q5J463 whole entry): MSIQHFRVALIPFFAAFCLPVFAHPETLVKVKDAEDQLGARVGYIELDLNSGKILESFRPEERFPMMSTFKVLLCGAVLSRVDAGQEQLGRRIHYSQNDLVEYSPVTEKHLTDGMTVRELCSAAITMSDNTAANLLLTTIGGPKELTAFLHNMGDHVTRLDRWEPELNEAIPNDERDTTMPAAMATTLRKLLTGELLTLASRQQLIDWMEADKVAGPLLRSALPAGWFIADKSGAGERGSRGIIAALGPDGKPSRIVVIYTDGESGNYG

Keap1/Nrf2 = Keap1/Nrf2 (Homo sapiens, UniProt Q14145); assay: Keap1-Nrf2 protein-protein interaction inhibitors, dose response, biochemical, fluorescence polarization, cherry-picked samples (AID 588683)

Sequence of Lysosomal acid glucosylceramidase (P04062 whole entry): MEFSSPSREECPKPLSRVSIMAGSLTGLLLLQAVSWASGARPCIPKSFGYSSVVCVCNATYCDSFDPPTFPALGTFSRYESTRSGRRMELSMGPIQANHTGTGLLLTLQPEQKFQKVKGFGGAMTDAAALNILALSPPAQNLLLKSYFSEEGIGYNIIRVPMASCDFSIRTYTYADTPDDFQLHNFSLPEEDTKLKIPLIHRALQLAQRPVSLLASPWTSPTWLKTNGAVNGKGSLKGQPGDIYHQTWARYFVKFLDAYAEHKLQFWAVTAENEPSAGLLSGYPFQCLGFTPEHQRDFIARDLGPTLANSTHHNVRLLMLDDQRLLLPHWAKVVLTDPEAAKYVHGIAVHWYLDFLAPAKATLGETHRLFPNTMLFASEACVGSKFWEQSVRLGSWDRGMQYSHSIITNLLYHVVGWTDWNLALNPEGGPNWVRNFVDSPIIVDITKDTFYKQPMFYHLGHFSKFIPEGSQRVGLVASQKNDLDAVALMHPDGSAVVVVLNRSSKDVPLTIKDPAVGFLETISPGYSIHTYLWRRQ

Br.Brc1ccc(C2=Nn3c(nnc3-c3cccnc3)SC2)s1
EC50 [1]: > 50000 nM (not active) | AC50 (Cytochrome P450 2C19): inconclusive | AC50 (Cytochrome P450 2D6): 4470 nM (inconclusive) | AC50 (Cytochrome P450 2C9): 22400 nM (inconclusive)

CC(=O)c1sc2nc(SCC(=O)N3CCCCC3)[nH]c(=O)c2c1C
EC50 [2]: > 79400 nM (inactive) | IC50 (Bcl-2-like protein 10): > 100000 nM (inactive) | EC50 [3]: > 79400 nM (not active) | IC50 (Estrogen receptor beta): 14600 nM (active) | EC50 [4]: > 79400 nM (not active) | IC50 [5]: > 93100 nM (not active)

COc1cc(-c2noc(C)c2/C=C/c2ccc(N)cc2)cc(OC)c1OC
EC50 [6]: < 100 nM (active) | EC50 [7]: 509 nM (active) | EC50 (BJ [8]): 344 nM (active) | EC50 (cells): 277 nM (active) | EC50 [9]: < 100 nM (active) | EC50 [10]: < 100 nM (active) | EC50 (BJ [11]): 469 nM (inconclusive) | IC50 [12]: 964 nM (active) | EC50 (BJ [13]): 380 nM (inconclusive) | EC50 [14]: 362 nM (active) | EC50 [15]: 335 nM (active)

O=C(Nc1ccc(N2C(=O)[C@H]3CCCC[C@@H]3C2=O)c(Cl)c1)c1ccccn1
EC50 [16]: 650 nM (active)

O=c1cc(C(F)(F)F)c2cc3c4c(c2o1)CCCN4CCC3
IC50 [17]: 1370 nM (active) | IC50 (Beta-lactamase [18]): 78200 nM (inactive) | IC50 (Beta-lactamase [19]): 5570 nM (active) | AC50 (Keap1/Nrf2): 2800 nM (active)
